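Values below derive from 48-hour exposures of cells grown in 96-well plates, with endpoints linearly interpolated between the two concentrations bracketing the appropriate inhibition level. The concentration for 50% growth inhibition is given as GI50. TGI: total growth inhibition.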
Tests used:
Assay in all cases: DTP human tumour cell line panel, 48 h; in the data active = GI50 below about 0.43 µM; inactive = the rest
786-0 renal = test system: 786-0 renal
NCI-H226 lung = test system: NCI-H226 lung
OVCAR-5 ovarian = test system: OVCAR-5 ovarian
OVCAR-3 ovarian = test system: OVCAR-3 ovarian
HCC-2998 colon = test system: HCC-2998 colon
EKVX NSCLC = test system: EKVX NSCLC
MDA-MB-435 = test system: MDA-MB-435
SK-MEL-5 melanoma = test system: SK-MEL-5 melanoma
SNB-75 CNS = test system: SNB-75 CNS
MALME-3M melanoma = test system: MALME-3M melanoma
SN12C renal = test system: SN12C renal
UACC-257 melanoma = test system: UACC-257 melanoma
PC-3 prostate = test system: PC-3 prostate
SK-MEL-28 melanoma = test system: SK-MEL-28 melanoma
T-47D breast = test system: T-47D breast
HCT-116 colon = test system: HCT-116 colon
NCI-H522 lung = test system: NCI-H522 lung
HL-60(TB) leukemia = test system: HL-60(TB) leukemia
MDA-MB-231 breast = test system: MDA-MB-231 breast
SW-620 colon = test system: SW-620 colon
U251 CNS = test system: U251 CNS
CCRF-CEM leukemia = test system: CCRF-CEM leukemia
SNB-19 CNS = test system: SNB-19 CNS
TK-10 renal = test system: TK-10 renal
A498 renal = test system: A498 renal
HOP-62 NSCLC = test system: HOP-62 NSCLC
SF-268 CNS = test system: SF-268 CNS
CAKI-1 renal = test system: CAKI-1 renal
NCI-H460 lung = test system: NCI-H460 lung
SF-295 CNS = test system: SF-295 CNS
DU-145 prostate = test system: DU-145 prostate
IGROV1 ovarian = test system: IGROV1 ovarian
OVCAR-8 ovarian = test system: OVCAR-8 ovarian
UACC-62 melanoma = test system: UACC-62 melanoma
HS 578T breast = test system: HS 578T breast
KM12 colon = test system: KM12 colon
UO-31 renal = test system: UO-31 renal
OVCAR-4 ovarian = test system: OVCAR-4 ovarian
MOLT-4 leukemia = test system: MOLT-4 leukemia
SK-MEL-2 melanoma = test system: SK-MEL-2 melanoma
SK-OV-3 ovarian = test system: SK-OV-3 ovarian
HCT-15 colon = test system: HCT-15 colon
LOX IMVI melanoma = test system: LOX IMVI melanoma
ACHN renal = test system: ACHN renal
A549 NSCLC = test system: A549 NSCLC
SF-539 CNS = test system: SF-539 CNS
BT-549 breast = test system: BT-549 breast
HOP-92 NSCLC = test system: HOP-92 NSCLC
MCF7 breast = test system: MCF7 breast
HT29 colon = test system: HT29 colon
COLO 205 colon = test system: COLO 205 colon
NCI/ADR-RES ovarian = test system: NCI/ADR-RES ovarian
K-562 leukemia = test system: K-562 leukemia
RXF 393 renal = test system: RXF 393 renal
RPMI-8226 leukemia = test system: RPMI-8226 leukemia
NCI-H23 lung = test system: NCI-H23 lung
SR leukemia = test system: SR leukemia

Cn1c2c(c3ccc([N+](=O)[O-])cc3c1=O)C(=O)c1ccccc1-2
> 100 µM: TGI (786-0 renal) | TGI (NCI-H226 lung) | TGI (OVCAR-5 ovarian) | TGI (OVCAR-3 ovarian) | TGI (HCC-2998 colon) | TGI (EKVX NSCLC) | TGI (MDA-MB-435) | TGI (SK-MEL-5 melanoma) | TGI (SNB-75 CNS) | TGI (MALME-3M melanoma) | TGI (SN12C renal) | TGI (UACC-257 melanoma) | TGI (PC-3 prostate) | TGI (SK-MEL-28 melanoma) | TGI (T-47D breast) | TGI (HCT-116 colon) | TGI (NCI-H522 lung) | TGI (HL-60(TB) leukemia) | TGI (MDA-MB-231 breast) | TGI (SW-620 colon) | TGI (U251 CNS) | TGI (CCRF-CEM leukemia) | TGI (SNB-19 CNS) | TGI (TK-10 renal) | TGI (A498 renal) | TGI (HOP-62 NSCLC) | TGI (SF-268 CNS) | TGI (CAKI-1 renal) | TGI (NCI-H460 lung) | TGI (SF-295 CNS) | TGI (DU-145 prostate) | TGI (IGROV1 ovarian) | TGI (OVCAR-8 ovarian) | TGI (UACC-62 melanoma) | TGI (HS 578T breast) | TGI (KM12 colon) | TGI (UO-31 renal) | TGI (OVCAR-4 ovarian) | TGI (MOLT-4 leukemia) | TGI (SK-MEL-2 melanoma) | TGI (SK-OV-3 ovarian) | TGI (HCT-15 colon) | TGI (LOX IMVI melanoma) | TGI (ACHN renal) | TGI (A549 NSCLC) | TGI (SF-539 CNS) | TGI (BT-549 breast) | TGI (HOP-92 NSCLC) | TGI (MCF7 breast) | TGI (HT29 colon) | TGI (COLO 205 colon) | TGI (NCI/ADR-RES ovarian)
inactive: GI50 (786-0 renal) > 100 µM | GI50 (NCI-H226 lung) > 100 µM | GI50 (OVCAR-5 ovarian) > 100 µM | GI50 (OVCAR-3 ovarian) 52.6 µM | GI50 (HCC-2998 colon) > 100 µM | GI50 (EKVX NSCLC) > 100 µM | GI50 (MDA-MB-435) 47.4 µM | GI50 (SK-MEL-5 melanoma) > 100 µM | GI50 (SNB-75 CNS) > 100 µM | GI50 (MALME-3M melanoma) 70.3 µM | GI50 (SN12C renal) > 100 µM | GI50 (UACC-257 melanoma) > 100 µM | GI50 (PC-3 prostate) > 100 µM | GI50 (SK-MEL-28 melanoma) > 100 µM | GI50 (T-47D breast) > 100 µM | GI50 (HCT-116 colon) > 100 µM | GI50 (NCI-H522 lung) > 100 µM | GI50 (HL-60(TB) leukemia) > 100 µM | GI50 (MDA-MB-231 breast) > 100 µM | GI50 (SW-620 colon) > 100 µM | GI50 (U251 CNS) > 100 µM | GI50 (CCRF-CEM leukemia) > 100 µM | GI50 (SNB-19 CNS) > 100 µM | GI50 (TK-10 renal) > 100 µM | GI50 (A498 renal) > 100 µM | GI50 (HOP-62 NSCLC) > 100 µM | GI50 (SF-268 CNS) > 100 µM | GI50 (CAKI-1 renal) 80.5 µM | GI50 (NCI-H460 lung) > 100 µM | GI50 (SF-295 CNS) 22.7 µM | GI50 (DU-145 prostate) > 100 µM | GI50 (IGROV1 ovarian) > 100 µM | GI50 (OVCAR-8 ovarian) > 100 µM | GI50 (UACC-62 melanoma) > 100 µM | GI50 (HS 578T breast) > 100 µM | GI50 (KM12 colon) > 100 µM | GI50 (UO-31 renal) > 100 µM | GI50 (OVCAR-4 ovarian) > 100 µM | GI50 (MOLT-4 leukemia) > 100 µM | GI50 (SK-MEL-2 melanoma) > 100 µM | GI50 (SK-OV-3 ovarian) > 100 µM | GI50 (HCT-15 colon) > 100 µM | GI50 (LOX IMVI melanoma) > 100 µM | GI50 (ACHN renal) > 100 µM | GI50 (A549 NSCLC) > 100 µM | GI50 (SF-539 CNS) > 100 µM | GI50 (BT-549 breast) > 100 µM | GI50 (HOP-92 NSCLC) > 100 µM | GI50 (MCF7 breast) > 100 µM | GI50 (HT29 colon) > 100 µM | GI50 (COLO 205 colon) > 100 µM | GI50 (NCI/ADR-RES ovarian) > 100 µM

COc1ccc2c(=O)cc(C(Cl)(Cl)Cl)oc2c1
15.5 µM: TGI (A549 NSCLC)
20.4 µM: TGI (RXF 393 renal)
14.3 µM: TGI (HCT-116 colon)
40.4 µM: TGI (TK-10 renal)
5.03 µM: TGI (LOX IMVI melanoma)
14.9 µM: TGI (MDA-MB-231 breast)
10.6 µM: TGI (BT-549 breast)
3.82 µM: TGI (RPMI-8226 leukemia)
14.5 µM: TGI (SW-620 colon)
0.971 µM: TGI (DU-145 prostate)
17.5 µM: TGI (UACC-62 melanoma)
41.6 µM: TGI (UACC-257 melanoma)
15.1 µM: TGI (SNB-75 CNS)
23.2 µM: TGI (SK-MEL-28 melanoma)
0.683 µM: TGI (NCI-H522 lung)
8.63 µM: TGI (NCI-H460 lung)
15.7 µM: TGI (UO-31 renal)
14.6 µM: TGI (CAKI-1 renal) | TGI (MCF7 breast)
0.583 µM: TGI (SF-539 CNS)
27.6 µM: TGI (HOP-62 NSCLC)
> 100 µM: TGI (K-562 leukemia)
11.3 µM: TGI (HCC-2998 colon)
23.3 µM: TGI (HOP-92 NSCLC)
15.6 µM: TGI (SF-268 CNS)
11.9 µM: TGI (SN12C renal)
inactive: GI50 (NCI-H226 lung) 14.8 µM | GI50 (MALME-3M melanoma) 5.71 µM | GI50 (SN12C renal) 0.519 µM | GI50 (UACC-257 melanoma) 12 µM | GI50 (SK-MEL-28 melanoma) 0.632 µM | GI50 (T-47D breast) 12.2 µM | GI50 (RXF 393 renal) 0.676 µM | GI50 (U251 CNS) 1.14 µM | GI50 (SNB-19 CNS) 3.77 µM | GI50 (TK-10 renal) 8.36 µM | GI50 (HOP-62 NSCLC) 1.04 µM | GI50 (SF-295 CNS) 1.27 µM | GI50 (IGROV1 ovarian) 0.633 µM | GI50 (UACC-62 melanoma) 0.438 µM | GI50 (HS 578T breast) 0.979 µM | GI50 (UO-31 renal) 0.637 µM | GI50 (SK-MEL-2 melanoma) 0.488 µM | GI50 (SK-OV-3 ovarian) 0.511 µM | GI50 (A549 NSCLC) 0.444 µM
14.1 µM: TGI (786-0 renal)
19.3 µM: TGI (NCI-H23 lung)
48.1 µM: TGI (SNB-19 CNS)
55.3 µM: TGI (T-47D breast)
31.5 µM: TGI (SK-OV-3 ovarian)
35.8 µM: TGI (NCI-H226 lung)
4.44 µM: TGI (MOLT-4 leukemia)
35.6 µM: TGI (MALME-3M melanoma)
3.36 µM: TGI (A498 renal)
21.3 µM: TGI (IGROV1 ovarian)
0.836 µM: TGI (HL-60(TB) leukemia)
10.4 µM: TGI (OVCAR-8 ovarian)
10.9 µM: TGI (HT29 colon)
26.4 µM: TGI (SK-MEL-2 melanoma)
13.8 µM: TGI (ACHN renal)
13 µM: TGI (SF-295 CNS)
0.833 µM: TGI (SK-MEL-5 melanoma)
18.9 µM: TGI (PC-3 prostate)
12.5 µM: TGI (KM12 colon)
14.2 µM: TGI (HCT-15 colon) | TGI (NCI/ADR-RES ovarian)
active: GI50 (786-0 renal) 0.324 µM | GI50 (OVCAR-5 ovarian) 0.385 µM | GI50 (HCC-2998 colon) 0.4 µM | GI50 (K-562 leukemia) 0.0525 µM | GI50 (SK-MEL-5 melanoma) 0.278 µM | GI50 (SNB-75 CNS) 0.327 µM | GI50 (PC-3 prostate) 0.39 µM | GI50 (HCT-116 colon) 0.299 µM | GI50 (NCI-H522 lung) 0.228 µM | GI50 (HL-60(TB) leukemia) 0.269 µM | GI50 (MDA-MB-231 breast) 0.333 µM | GI50 (SW-620 colon) 0.237 µM | GI50 (RPMI-8226 leukemia) 0.389 µM | GI50 (CCRF-CEM leukemia) 0.309 µM | GI50 (NCI-H23 lung) 0.409 µM | GI50 (A498 renal) 0.213 µM | GI50 (SF-268 CNS) 0.377 µM | GI50 (CAKI-1 renal) 0.376 µM | GI50 (NCI-H460 lung) 0.364 µM | GI50 (DU-145 prostate) 0.309 µM | GI50 (OVCAR-8 ovarian) 0.338 µM | GI50 (KM12 colon) 0.32 µM | GI50 (OVCAR-4 ovarian) 0.423 µM | GI50 (MOLT-4 leukemia) 0.302 µM | GI50 (SR leukemia) 0.058 µM | GI50 (HCT-15 colon) 0.24 µM | GI50 (LOX IMVI melanoma) 0.173 µM | GI50 (ACHN renal) 0.412 µM | GI50 (SF-539 CNS) 0.208 µM | GI50 (BT-549 breast) 0.336 µM | GI50 (HOP-92 NSCLC) 0.361 µM | GI50 (MCF7 breast) 0.262 µM | GI50 (HT29 colon) 0.345 µM | GI50 (NCI/ADR-RES ovarian) 0.296 µM
15.8 µM: TGI (OVCAR-5 ovarian)
48.6 µM: TGI (HS 578T breast)
30.7 µM: TGI (OVCAR-4 ovarian)
11.1 µM: TGI (U251 CNS)
91.5 µM: TGI (SR leukemia)
